According to paper PMC5011760, “Luteolin Attenuates Airway Mucus Overproduction via Inhibition of the GABAergic System” (Scientific Reports, 2016):

Test system: T1, GABAA receptors (GABAAR) in A549 cells
T1 construct: gene GABRA3; endogenous receptors of A549 cells, pentameric; exact subunit composition not determined (members = most abundant subunit mRNAs)
Assay: whole-cell patch clamp, A549 cells
Format: cell-based
Conditions: inhibition of currents evoked by 2.5 μM GABA; -60 mV, pH 7.4; authors call it allosteric modulator

## O=c1cc(-c2ccc(O)c(O)c2)oc2cc(O)cc(O)c12 [luteolin, 3′,4′,5,7-tetrahydroxyflavone]
  IC50: 8.2 µM
